Data set [1] has as its system PBMC. The data set can be described thus: Stimulation of the secretion of IFN-α from peripheral blood mononuclear cells (PBMC). Type of data set: cell-based, human. Particulars: minimal effective concentration: lowest concentration giving cytokine level at least 3 times the minimum detection limit; 24 hours incubation. Here is the method: The ability of the compounds of the present invention to stimulate the secretion of IFN-α from PBMC was determined by the following experimental method:
The compound was diluted with pure DMSO to a maximum concentration of 5 mM, and a total of 9 points were obtained by a 4-fold gradient dilution. 4 μl of the compound were then added to 196 μl of RMPI 1640 medium containing 10% FBS and mixed well. 50 μl of the mixture were taken from each well and added to a new 96-well plate.
All reagents were equilibrated to room temperature. 60 ml of blood and PBS+2% FBS were added to a 250 ml culture flask, gently pipetted, mixed well and diluted. 15 ml of lymphocyte separation solution Ficoll-Paque PREMIUM and then 30 ml of diluted blood were added to a 50 ml PBMC centrifuge tube SepMate™-50. The mixture was centrifuged at 1200 g for 10 minutes at room temperature. The supernatant was taken and then centrifuged at 300 g for 8 minutes. The cells were re-suspended in the RMPI 1640 medium containing 10% FBS and counted, and the number of PBMCs was adjusted to 3.33×10^6 cells/ml. 150 μl of the cell solution were added to the plate added with the compound, and incubated in an incubator at 37° C., in 5.0% CO2 for 24 hours.
The cell culture plate was placed in a centrifuge, and centrifuged at 1200 rpm for 10 minutes at room temperature. 150 μl of the supernatant were taken from each well. The reagents in the human IFN-α kit were first equilibrated to normal temperature. The anti-IFN-α-Eu^3+-Cryptate conjugate and the anti-IFN-α-d2-conjugate were formulated in the dark according to the kit instructions, and both of them were mixed well with the conjugate buffer at a ratio of 1:40. 16 μl of the supernatant obtained by centrifugation were then added to each well. 2 μl of anti-IFN-α-Eu^3+-Cryptate conjugate and anti-IFN-α-d2-conjugate formulated just now were then added to each well. The plate was shaken and mixed well, and incubated in the dark at room temperature for 3 hours.
The PHERAStar was read in the HTRF mode. The lowest compound concentration that stimulated cytokine levels of at least 3 times higher than the minimum detection limit was defined as the minimal effective concentration (MEC) value of the compound in the cytokine stimulation test.
The ability of the compounds of the present invention to stimulate the secretion of IFN-α from PBMC was determined by the above test, and the obtained MEC values are shown in Table 3.

Data set [2] concerns the target CYP3A4 (Homo sapiens (Human), UniProt P08684). The data set can be described thus: Inhibition of the midazolam metabolite site of CYP3A4 in human liver microsomes. Format: in vitro ADME. Particulars: probe substrate midazolam. Here is the method: The effect of the compounds of the present invention on the enzyme activity of midazolam metabolite site of CYP3A4 in human liver microsomes was determined by the following experimental method:
100 mM PBS buffer was formulated, which was then used to formulate 2.5 mg/ml microsome solution and 5 mM NADPH solution. The 5× concentration of the compound working solution was diluted with PBS gradient (150, 50, 15, 5, 1.5, 0.15, 0.015, 0 μM). The 5× concentration of ketoconazole working solution was diluted with PBS gradient (150, 50, 15, 5, 1.5, 0.15, 0.015, 0 μM). Dextromethorphan working solution was diluted with PBS to a concentration of 50 μM.
20 μl of 2.5 mg/ml microsome solution, 20 μl of 50 μM testosterone working solution, 20 μl of MgCl2 solution and 20 μl of the compound working solution (150, 50, 15, 5, 1.5, 0.15, 0.015, 0 μM, different reaction systems for each concentration) were taken respectively and mixed well. For the positive control group, the compound was replaced with the same concentration of ketoconazole. The mixture together with 5 mM NADPH solution were pre-incubated at 37° C. for 5 minutes. After 5 minutes, 20 μl of NADPH were added to each well, the reaction was started and incubated for 30 minutes. All the incubated samples were present in duplicate. After 30 minutes, 250 μl of acetonitrile containing internal standard were added to all samples, mixed well, shaken at 800 rpm for 10 minutes, and then centrifuged at 3700 rpm for 10 minutes. 80 μl of the supernatant were taken and analyzed by LC-MS/MS.
The data were calculated by Graphpad Prism to obtain the IC50 values of the compounds on the midazolam metabolite site of CYP3A4.

CYP3A4, sequence (P08684 whole entry): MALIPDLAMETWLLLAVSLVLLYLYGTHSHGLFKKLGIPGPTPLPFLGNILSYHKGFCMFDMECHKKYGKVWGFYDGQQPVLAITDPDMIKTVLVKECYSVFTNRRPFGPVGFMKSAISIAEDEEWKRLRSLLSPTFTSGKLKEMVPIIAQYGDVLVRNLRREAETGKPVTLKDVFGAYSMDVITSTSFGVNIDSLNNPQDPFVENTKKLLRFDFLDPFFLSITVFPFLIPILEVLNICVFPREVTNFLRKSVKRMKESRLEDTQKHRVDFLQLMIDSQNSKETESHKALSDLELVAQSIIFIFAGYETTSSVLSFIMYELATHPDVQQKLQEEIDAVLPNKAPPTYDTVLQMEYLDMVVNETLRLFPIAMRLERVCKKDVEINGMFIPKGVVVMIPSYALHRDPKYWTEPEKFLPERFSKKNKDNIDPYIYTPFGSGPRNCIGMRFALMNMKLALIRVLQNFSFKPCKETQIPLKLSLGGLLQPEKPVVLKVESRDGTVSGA

Consider `CCCCOc1nc(N)c2cnn(Cc3ccc(CN4CCC4)cc3)c2n1` [Example 2, 1-(4-(Azetidin-1-ylmethyl)benzyl)-6-butoxy-1H-pyrazolo[3,4-d]pyrimidin-4-amine], for which the “MEC to stimulate the secretion of IFN-α from PBMC” value (from here on “MEC to stimulate the secretion”) in data set [1] is recorded as 23 nM. Moreover, in data set [2], the IC50 turned out to be 10 µM.

For the molecule `COCCOc1nc(N)c2cnn(Cc3ccc(CN4CCCC4)cc3)c2n1` [Example 7, 6-(2-Methoxyethoxy)-1-(4-(pyrrolidin-1-ylmethyl)benzyl)-1H-pyrazolo[3,4-d]pyrimidin-4-amine], in data set [1], the “MEC to stimulate the secretion” value came to 89 nM. Besides, the IC50 in data set [2] is above 30 µM.

For the molecule `CCCCOc1nc(N)c2cnn(Cc3ccc(CN4CCCCC4)cc3)c2n1` [Example 3, 6-Butoxy-1-(4-(piperidin-1-ylmethyl)benzyl)-1H-pyrazolo[3,4-d]pyrimidin-4-amine], the “MEC to stimulate the secretion” value in data set [1] was 20 nM. Besides, the IC50 in data set [2] amounted to 7 µM.

For the molecule `CCCCOc1nc(N)c2cnn(Cc3cccc(CN4CCCC4)c3)c2n1` [Example 4, 6-Butoxy-1-(3-(pyrrolidin-1-ylmethyl)benzyl)-1H-pyrazolo[3,4-d]pyrimidin-4-amine], the “MEC to stimulate the secretion” value in data set [1] turned out to be 100 nM. The IC50 in data set [2] is 11 µM.
